Measurements published in US8034606B2, “Acid tolerant Lactobacillus sakei probio-65 with the ability of growth suppression of pathogenic microorganisms and the anti-allergic effect” (priority 2005, dated 2011).

Tested on: Lactobacillus sakei Probio-65
Assay: Antibiotic sensitivity test of the strain against fourteen antibiotics
Assay type: cell-based
Settings: for Diameter: antibiotic amount 2 to 250 μg depending on antibiotic, compared with Resistance (mm); for Results: antibiotic amount (μg), resistant or susceptible by diameter (mm)

Row | Compound | Diameter | Results
1 | CN(C)c1ccc(O)c2c1C[C@H]1C[C@H]3[C@H](N(C)C)C(O)=C(C(N)=O)C(=O)[C@@]3(O)C(O)=C1C2=O [Minocyclin] | 26 mm | S
2 | CC1(C)S[C@@H]2[C@H](NC(=O)Cc3ccccc3)C(=O)N2[C@H]1C(=O)O [Penicillin G] | 20 mm | –
3 | Cc1noc(NS(=O)(=O)c2ccc(N)cc2)c1C [Sulfisoxzazole] | 0 mm | R
4 | Gentamicin | 9 mm | R
5 | Neomycin | 9 mm | R
